Key:
[1] = system: kidney mitochondria of UCP2 knockout mice; assay: Proton leak titration in isolated kidney mitochondria of UCP2 knockout mice with superoxide-generating system; type: biochemical; settings: 50 μM genipin with 50 mM xanthine and 0.2 mU/3.5 mL xanthine oxidase, FIG. 3
Procedure: FIG. 3 is a graph showing the effect of genipin on superoxide-activated, UCP2-dependent proton leak in isolated kidney mitochondria of UCP2 knockout mice. Proton leak titration was performed in the presence of a superoxide-generating system (xanthine plus xanthine oxidase) essentially as described (Echtay et al. 2002, Nature 415, 96-99). Graphs show the rate of proton leak as a function of its driving force, mitochondrial membrane potential. ♦, control; ▪, xanthine (50 mM) plus xanthine oxidase (0.2mU/3.5 ml). Δ, xanthine/xanthine oxidase plus 50 μM genipin. Mitochondria were incubated with genipin in the oxygen electrode for 5 minutes before xanthine oxidase was added (to initiate the generation of superoxide). Western-blot analysis confirmed that there was no UCP2 protein in mitochondria from UCP2 knockout mice. Data are means +/−S.E.M. of four independent experiments.
Wildtype and UCP2 knockout mice were used for isolation of kidney mitochondria. Fresh tissues were minced in ice-cold STE buffer (250 mM sucrose, 5 mM Tris, 2 mM EGTA, pH 7.4 at 4° C.), and disrupted in a Dounce homogenizer. Cell debris was removed by centrifugation of the homogenate at 500×g for 3 min. The supernatant was centrifuged at 10,000×g for 8 min., and the mitochondrial pellet was resuspended in ice-cold STE buffer. Mitochondria were subjected to another cycle of centrifugation at 750 and 10,000×g. […]

UCP2 KO islets = assay: Glucose-stimulated insulin secretion in UCP2 KO islets after chronic hyperglycemia; type: cell-based, mice; settings: UCP2 KO islets after 72 hours at 25 mM glucose; 5 μM genipin; FIG. 12B
Procedure: Pancreatic islets were isolated from WT (FIG. 12A) or UCP2 KO mice (FIG. 12B) and subjected to chronic incubations at low (5.5 mM) and high glucose (25 mM). In a separate experiment, islets were isolated from ob/ob mice (FIG. 12C). Islets were incubated for a total of 72 hours and washed, and then insulin-secretion studies were performed using three different concentrations of glucose (5.5, 12.5, and 25 mM) with or without 5 μM genipin. Results are means±SEM of four independent experiments (FIGS. 12A and 12B) or eight to twenty repeats of one representative experiment (FIG. 12C). WT islets that were chronically incubated at low glucose released increasing amounts of insulin in response to increasing concentrations of glucose (FIG. 12A, left panel). Following chronic hyperglycemia, islets increased basal insulin release, but were completely unresponsive to glucose stimulation (FIG. 12A, middle panel). […] To assess the role of genipin in hyperglycemia-induced loss of glucose responsiveness, genipin was acutely added into islets during the insulin-release phase of the study. […] To see whether this effect of genipin is mediated by UCP2, islets were isolated from UCP2 KO mice and then incubated in chronic hyperglycemia. […]

## COC(=O)C1=CO[C@@H](O)[C@@H]2C(CO)=CC[C@H]12 [genipin]
[1]
  rate of proton leak as a function of mitochondrial membrane potential: proton leak occurred at approximately the same membrane potential as that observed for kidney mitochondria from UCP2 knockout mice exposed to the superoxide-generating system alone
UCP2 KO islets
  glucose-stimulated insulin secretion (GSIS): no additional beneficial effect on GSIS
